Experiments:
[1] = Cumulative urinary excretion after single intravenous dose of P5P (Example Three); assay type: in vivo, human; conditions: for Cumulative Urinary Excretion as Percent of the Dose: Percent (CV %)
Procedure: P5P, pyridoxal, and 4-pyridoxic acid were evaluated in both plasma and urine over a 24 hour interval following either intravenous or oral dosing. The results are set out below in Tables 2 and 3. The urinary excretion of the unchanged P5P is negligible. Less than 0.5% of the administered dose was found as P5P in the urine (Table 10). Similarly, very little of the dose was excreted in urine as PAL, between approximately 2 to 3% of the total dose (Table 10). PA represented the largest amounts found in urine. Over a 24-hour interval, between 30% and 52% of the given dose was excreted in urine as 4-pyridoxic acid.

clinical = assay: clinical; set-up: species or system human; conditions: in vivo; for AUC: AUC0-τ; for half-life: T1/2 el
Procedure: Data sets analyzed—Six (6) healthy, adult non-smokers were administered intravenously a single daily dose of 10 mg/kb of P5P for four consecutive days and completed the study. In accordance with the study protocol, data from all subjects who completed the study were used for pharmacokinetic and statistical analysis.
Analytical Methods—Plasma and urine samples were used for analysis. P5P, PAL, and PA levels were determined by HPLC/FLD. The quantitation level was 5 ng/mL for plasma and 100 ng/mL for urine. The sample analysis calibration curve range was 5 ng/mL to 5000 ng/mL for plasma and 100 ng/mL to 50,000 ng/mL for urine.
When the difference exceeded this time limit, the actual sampling times (rounded off to three decimal digits) were used to calculate pharmacokinetic parameters except for pre-dose samples, which were always reported as zero (0.000), regardless of time deviations. Scheduled sampling times are presented in concentration tables and graphs of the statistical section of the report.
Pharmacokinetic analyses (non-compartmental and compartmental) were performed at SFBC Anapharm. Pharmacokinetic parameters were calculated using either Bioequiv (release 3.40) or WinNonLin™ (release 4.0.1). Bioequiv is proprietary software developed and tested for bioequivalence studies at SFBC Anapharm. This software performs non-compartmental analyses of pharmacokinetic parameters and statistical analyses (via SAS release 6.12) according to FDA, HPFB and BMEA guidance.
The mean, standard deviation (SD), coefficient of variation (CV (%)) and range (min. and max.) were calculated for plasma concentrations of P5P (both baseline corrected and uncorrected), PAL and PA for each sampling time and treatment.
For the non-compartmental pharmacokinetic analyses the mean. SD, CV (%). range (min. and max.), median and interquartile range were calculated for the AUC0-t, (ng·h/mL), AUC0-t (ng·h/mL), AUC0-inf (ng·h/mL), Cmax (ng/mL), Cmin (ng/mL), Cavg (ng/mL), Fl(%), Ae0-t (ng), AUC^t/inf (%), Tmax (h), T1/2 el (h), Kel (h^−1), TLIN (h), LQCT (h). CLT (L/h), CLR (L/h). Vβ (L), MRT (h) and Accumulation ratio. The calculation of these pharmacokinetic parameters is explained below.
Cmax the maximum observed concentration, and Tmax, the time to reach that peak concentration, were determined for each subject and for each analyte. For Day 4 data, Cmin the minimum observed concentration was determined for each subject and for each analyte and Cavg was calculated as AUC0-τ/τ.
Percentage of Fluctuation—For Day 4 data, the peak-through percentage of fluctuation over one dosing interval (Fl(%)) was calculated as: 100*([Cmax−Cmin]/Cavg)
Half-Life and Elimination Rate Constant—To calculate the elimination rate constant (Kel), regression analyses were performed on the natural log(Ln) of plasma concentration values (y) versus time (x). Calculations were made between a time point where log-linear elimination phase begins (TLIN) and the time at which the last concentration above the limit of quantification (LQCT) occurred. The Kel was taken as the slope multiplied by (−1) and the apparent half-life (T1/2 el) as (In 2)/Kel.
TLIN and LQCT—TLIN, the time point where In-linear Kel calculation begins, and LQCT, the sampling time of the last quantifiable concentration used to estimate the Kel were determined by the scientist (according to SFBC Anapharm's standard operating procedures) for each subject and for each treatment. At least 4 non-zero observations during the terminal elimination phase were used to calculate the Kel. A minimum of 3 observations were used if less than 4 observations were available.
Areas Under the Concentration-Time Curves—AUC0-t was calculated using the linear trapezoidal rule from time 0.000 h until the last non-zero concentration.
AUC0-τ was calculated using the linear trapezoidal rule from time 0.000 h until 24.0 h.
The AUC0-inf was calculated as: […]

[2] = Group 1, dose of P5P 1 mg/1 kg, single iv
[3] = Group 3, P5P 10 mg/kg single iv
[4] = Group 4, dose of P5P, single iv

Row | SMILES | Cumulative Urinary Excretion as Percent of the Dose [1, 2] | Cumulative Urinary Excretion as Percent of the Dose ([1]; Group 2, P5P 5 mg/kg single iv) | Cumulative Urinary Excretion as Percent of the Dose [1, 3] | Cumulative Urinary Excretion as Percent of the Dose [1, 4] | Tmax (clinical; human, iv, 10 mg/kg) | AUC(0-inf) (clinical; human, iv, 10 mg/kg, AUC0-inf) | AUC(0-t) (clinical; human, iv, 10 mg/kg, AUC0-t) | AUC (clinical; human, iv, 10 mg/kg) | Cmax (clinical; human, iv, 10 mg/kg, Cmax) | MRT (clinical; human, iv, 10 mg/kg) | half-life (clinical; human, iv, 10 mg/kg) | Tmax (clinical; human, iv, 10 mg/kg, Tmax) | ANOVA, difference between treatment days (clinical) | Ratio of LS Means, AUC0-inf (clinical; human) | Ratio of LS Means, AUC0-t (clinical; human) | Ratio of LS Means, Cmax (clinical; human) | AUC(0-inf) (clinical; human, iv, 10 mg/kg) | AUC(0-t) (clinical; human, iv, 10 mg/kg) | Cmax (clinical; human, iv, 10 mg/kg) | further results
1 | Cc1ncc(COP(=O)(O)O)c(C=O)c1O [P5P, Pyridoxal 5′-phosphate, reference compound] | 0.06 (161) Percent | 0.08 (96) Percent | 0.02 (167) Percent | 0.26 (73) Percent | 0.081 h | 283000 ng·h/mL | 278000 ng·h/mL | 303000 ng·h/mL | 191000 ng/mL | 3.4 h | 5.14 h | 0.089 h | did not detect any statistically significant difference | – | – | – | – | – | – | part of the administered dose found in urine ([1]; single iv P5P 1-20 mg/kg, 24-hour interval): Less than 0.5%; Tmax (clinical; human, Tmax): 0.067 h; AUC0-τ (clinical; human, iv, 10 mg/kg): 303393.72 ng·h/mL; clearance (clinical; human, iv, 10 mg/kg, CLτ (text: CLT, total body clearance)): 42.5 mL/min
2 | Cc1ncc(CO)c(C=O)c1O [PAL, pyridoxal] | 1.93 (101) Percent | 3.00 (37) Percent | 2.73 (20) Percent | 2.46 (33) Percent | 0.691 h | 22400 ng·h/mL | 22300 ng·h/mL | 29700 ng·h/mL | 7630 ng/mL | 4.06 h | 3.4 h | 0.525 h | – | 133.70% | 132.83% | 101.45% | 30077.45 ng·h/mL | 29682.94 ng·h/mL | 6902 ng/mL | ANOVA, difference between treatment days (clinical; human): statistically significant difference between treatment days was detected using ANOVA for In-transformed AUC0-t, and AUC0-inf but not for Cmax
3 | Cc1ncc(CO)c(C(=O)O)c1O [PA, 4-pyridoxic acid] | 52.25 (28) Percent | 47.18 (32) Percent | 29.78 (32) Percent | 40.55 (54) Percent | 0.528 h | 21200 ng·h/mL | 20700 ng·h/mL | 21200 ng·h/mL | 4360 ng/mL | 3.85 h | 2.3 h | 0.611 h | did not detect any statistically significant difference | 99.47% | 99.75% | 97.17% | 21097.95 ng·h/mL | 20704.80 ng·h/mL | 4238 ng/mL | –
